Measured values reported in patent US20070166696A1, “Adenovirus-transfected primary cells and methods of pathway mapping” (SANOFI-AVENTIS U.S. LLC, priority 2003, published 2007).

Key:
Assay type in all cases: cell-based, human
CRE cis-element = test: Adenovirus luciferase reporter in CD14+ plate-bound macrophages; conditions: LPS 1 μg/ml, 24 hours post stimulation
Protocol: (§1) After a certain amount of time post stimulation, the cells are collected and luciferase activity is measured. Luciferase activity can be measured by an enzyme assay using a photon generating substrate and detecting photons by luminometer.
(§2) Similar experiments were performed for CD14^+ plate-bound macrophages. In this example, macrophages are obtained as follows: First, peripheral blood mononuclear cells (“PBMCs”) are obtained by density gradient centrifugation. One density gradient centrifugation medium is FICOLL PAQUE, commercially available from Amersham Biosciences. Monocytes are then isolated from the PBMCs by magnetic depletion of non-monocytes. Finally, macrophages are isolated from the monocytes by attachment of the monocytes to a tissue culture plate in the absence of fetal bovine serum (“FBS”).
(§3) In this example, resting cultures of isolated macrophages are then infected with a recombinant adenovirus containing the luciferase gene which is transcribed under the control of a specific cis-element. In this example, four recombinant adenovirus constructs are used to infect four separate cultures of macrophages, each construct containing one of four cis-elements: CRE, AP-1, NFκB, and ISRE. The macrophages are infected at a MOI of 100 per cell. […] At 24 hours post stimulation, cells are harvested and luciferase activity is measured by luminometer. […]

AP-1 cis-element [1] = test: as above; conditions: LPS 1 μg/ml, 24 hours post stimulation
Protocol: as §1, §2, §3

AP-1 cis-element [2] = test: Adenovirus luciferase reporter in iDCs; conditions: LPS 1 μg/ml, 2, 4, 8, 24 hours time course
Protocol: as §1
(§4) Similar experiments were performed for in vitro differentiated dendritic cells (“iDCs”). In this example, iDCs are obtained as follows: First, peripheral blood mononuclear cells (“PBMCs”) are obtained by density gradient centrifugation. One density gradient centrifugation medium is FICOLL PAQUE, commercially available from Amersham Biosciences. Monocytes are then isolated from the PBMCs by magnetic depletion of non-monocytes. Finally, iDCs are isolated from the monocytes by treatment of the monocytes with ILA and GM-GSF for 6 days.
(§5) In this example, resting cultures of isolated iDCs are then infected with a recombinant adenovirus containing the luciferase gene which is transcribed under the control of a specific cis-element. In this example, three recombinant adenovirus constructs are used to infect three separate cultures of iDCs, each construct containing one of three cis-elements: AP-1, NFκB, and ISRE. The iDCs are infected at a MOI of 100 per cell. After 16 hours of incubation post infection, the iDCs are then either mock stimulated (“C”) or stimulated with lipopolysaccharide (“LPS”) at the concentration of 1 μg/ml. At 2 hours, 4 hours, 8 hours, and 24 hours post stimulation, cells are harvested and luciferase activity is measured by luminometer. FIG. 6B contains three charts depicting the time course of AP-1, NFκB, and ISRE stimulation, respectively. […] These charts also indicate different time courses of activation.

ISRE cis-element = test: Adenovirus luciferase reporter in iDCs; conditions: LPS 1 μg/ml, 2, 4, 8, 24 hours time course
Protocol: as §1, §4, §5

NFκB cis-element = test: Adenovirus luciferase reporter in iDCs; conditions: LPS 1 μg/ml, 2, 4, 8, 24 hours time course
Protocol: as §1, §4, §5

## lipopolysaccharide [LPS]
CRE cis-element
  activation of the CRE cis-element (luciferase activity): significant stimulated activation
AP-1 cis-element [1]
  activation of the AP-1 cis-element (luciferase activity): significant stimulated activation
AP-1 cis-element [2]
  stimulation of the AP-1 cis-element (luciferase activity): significant stimulation
ISRE cis-element
  stimulation of the ISRE cis-element (luciferase activity): significant stimulation
NFκB cis-element
  stimulation of the NFκB cis-element (luciferase activity): significant stimulation
